Test results taken from ChEMBL document CHEMBL1136905, “Substituted isoxazole analogs of farnesoid X receptor (FXR) agonist GW4064” (Bioorg Med Chem Lett, 2009).

What was measured:
[1] = molecular target: T1, Bile acid receptor (Homo sapiens) (UniProt Q96RI1); assay: Agonist activity at human FXR assessed as SRC1 peptide interaction with receptor ligand binding domain by FRET assay relative to GW-4064
T1 sequence (whole entry): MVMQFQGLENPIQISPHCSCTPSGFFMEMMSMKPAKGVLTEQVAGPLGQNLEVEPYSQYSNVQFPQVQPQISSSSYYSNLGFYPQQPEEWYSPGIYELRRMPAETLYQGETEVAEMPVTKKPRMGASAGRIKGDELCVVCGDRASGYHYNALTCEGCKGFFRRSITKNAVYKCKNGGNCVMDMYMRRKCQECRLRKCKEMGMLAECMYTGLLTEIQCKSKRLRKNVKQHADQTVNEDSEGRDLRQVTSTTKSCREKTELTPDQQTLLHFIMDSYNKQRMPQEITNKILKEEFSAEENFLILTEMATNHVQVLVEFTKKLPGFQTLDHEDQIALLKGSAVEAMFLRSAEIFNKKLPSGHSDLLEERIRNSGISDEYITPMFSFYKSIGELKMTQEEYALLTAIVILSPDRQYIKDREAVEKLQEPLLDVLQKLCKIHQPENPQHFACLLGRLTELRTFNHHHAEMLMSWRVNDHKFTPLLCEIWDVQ

Bile acid receptor [2] = molecular target: T2, Bile acid receptor (Homo sapiens, UniProt Q96RI1); assay: Agonist activity at human FXR transfected in african green monkey CV1 cells by luciferase reporter gene transient transfection assay; format: functional, cell-based, CV-1
T2 sequence (Q96RI1 whole entry): T1 sequence (whole entry)

[3] = Selectivity ratio of XC50 for LRH to EC50 for human FXR
Bile acid receptor [4] = molecular target: T2, Bile acid receptor; assay: Agonist activity at human FXR assessed as SRC1 peptide interaction with receptor ligand binding domain by FRET assay
[5] = molecular target: T1, Bile acid receptor (Homo sapiens); assay: Agonist activity at human FXR transfected in african green monkey CV1 cells by luciferase reporter gene transient transfection assay relative to GW-4064; format: functional, cell-based; settings: CV-1
[6] = Selectivity ratio of XC50 for LXRalpha to EC50 for human FXR
[7] = Selectivity ratio of XC50 for LXRbeta to EC50 for human FXR
[8] = Selectivity ratio of XC50 for PXR to EC50 for human FXR
[9] = Selectivity ratio of XC50 for RORalpha to EC50 for human FXR
[10] = molecular target: T3, Nuclear receptor subfamily 5 group A member 2 (Homo sapiens, UniProt O00482); assay: Activity at LRH assessed as coactivator peptide interaction with receptor ligand binding domain by FRET assay
[11] = molecular target: T4, Oxysterols receptor LXR-alpha (Homo sapiens, UniProt Q13133); assay: Activity at LXRalpha assessed as coactivator peptide interaction with receptor ligand binding domain by FRET assay
T4 sequence (Q13133 whole entry): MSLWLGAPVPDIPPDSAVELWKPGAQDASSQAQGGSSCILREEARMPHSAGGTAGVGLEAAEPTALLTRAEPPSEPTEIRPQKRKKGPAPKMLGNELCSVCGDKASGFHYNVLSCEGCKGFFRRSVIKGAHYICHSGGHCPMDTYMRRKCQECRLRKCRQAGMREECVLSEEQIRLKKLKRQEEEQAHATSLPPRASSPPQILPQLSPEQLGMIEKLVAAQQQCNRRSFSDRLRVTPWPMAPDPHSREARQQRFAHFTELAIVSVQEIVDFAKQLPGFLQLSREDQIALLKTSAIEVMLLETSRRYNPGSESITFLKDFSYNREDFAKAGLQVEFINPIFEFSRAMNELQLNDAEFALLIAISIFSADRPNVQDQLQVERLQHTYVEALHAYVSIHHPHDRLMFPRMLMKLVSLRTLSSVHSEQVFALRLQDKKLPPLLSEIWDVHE

[12] = molecular target: T5, Oxysterols receptor LXR-beta (Homo sapiens, UniProt P55055); assay: Activity at LXRbeta assessed as coactivator peptide interaction with receptor ligand binding domain by scintillation proximity assay
T5 sequence (P55055 whole entry): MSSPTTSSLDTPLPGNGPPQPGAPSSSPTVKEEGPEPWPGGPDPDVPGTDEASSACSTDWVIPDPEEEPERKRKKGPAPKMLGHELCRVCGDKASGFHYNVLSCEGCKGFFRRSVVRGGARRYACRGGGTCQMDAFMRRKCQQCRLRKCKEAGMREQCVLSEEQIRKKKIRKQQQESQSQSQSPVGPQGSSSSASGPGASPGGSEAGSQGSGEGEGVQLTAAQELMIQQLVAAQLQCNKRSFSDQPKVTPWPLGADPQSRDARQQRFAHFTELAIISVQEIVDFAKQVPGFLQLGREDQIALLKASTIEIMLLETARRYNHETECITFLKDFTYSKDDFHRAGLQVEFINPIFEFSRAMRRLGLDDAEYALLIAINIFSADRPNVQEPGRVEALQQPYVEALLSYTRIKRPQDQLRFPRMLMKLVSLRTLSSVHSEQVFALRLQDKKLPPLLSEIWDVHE

[13] = molecular target: T6, PXR (Nuclear receptor subfamily 1 group I member 2) (Homo sapiens, UniProt O75469); assay: Activity at PXR assessed as coactivator peptide interaction with receptor ligand binding domain by scintillation proximity assay
T6 sequence (O75469 whole entry): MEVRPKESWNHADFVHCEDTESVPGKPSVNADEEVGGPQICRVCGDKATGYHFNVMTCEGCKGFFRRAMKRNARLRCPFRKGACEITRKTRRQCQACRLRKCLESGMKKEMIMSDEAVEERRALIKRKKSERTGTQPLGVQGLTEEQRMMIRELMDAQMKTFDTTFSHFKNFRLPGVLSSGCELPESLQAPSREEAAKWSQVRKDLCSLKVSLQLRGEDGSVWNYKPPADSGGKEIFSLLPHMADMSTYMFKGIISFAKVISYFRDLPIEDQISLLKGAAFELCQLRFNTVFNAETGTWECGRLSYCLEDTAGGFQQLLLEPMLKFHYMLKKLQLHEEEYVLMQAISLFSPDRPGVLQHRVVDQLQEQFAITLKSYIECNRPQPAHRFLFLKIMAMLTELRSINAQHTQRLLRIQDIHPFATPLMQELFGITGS

[14] = molecular target: T7, Nuclear receptor ROR-alpha (Homo sapiens, UniProt P35398); assay: Activity at RORalpha assessed as coactivator peptide interaction with receptor ligand binding domain by FRET assay
T7 sequence (P35398 whole entry): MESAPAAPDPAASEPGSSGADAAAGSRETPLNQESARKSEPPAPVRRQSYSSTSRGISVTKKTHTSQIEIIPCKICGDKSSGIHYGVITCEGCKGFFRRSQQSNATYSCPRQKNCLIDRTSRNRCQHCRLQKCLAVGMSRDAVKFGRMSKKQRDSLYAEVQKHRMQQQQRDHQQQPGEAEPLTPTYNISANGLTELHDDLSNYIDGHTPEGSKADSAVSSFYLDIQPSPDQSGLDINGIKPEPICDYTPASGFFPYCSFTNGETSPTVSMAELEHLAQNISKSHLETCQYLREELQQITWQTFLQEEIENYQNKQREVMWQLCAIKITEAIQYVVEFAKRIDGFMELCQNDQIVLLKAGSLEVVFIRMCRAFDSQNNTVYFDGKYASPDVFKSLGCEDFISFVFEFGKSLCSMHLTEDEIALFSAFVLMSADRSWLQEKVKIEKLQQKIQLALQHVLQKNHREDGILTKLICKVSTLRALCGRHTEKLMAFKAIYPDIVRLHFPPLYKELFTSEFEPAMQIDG

[15] = molecular target: T3, Nuclear receptor subfamily 5 group A member 2; assay: Activity at LRH assessed as coactivator peptide interaction with receptor ligand binding domain by FRET assay relative to standard control
[16] = molecular target: T8, Oxysterols receptor LXR-alpha (Homo sapiens) (UniProt Q13133); assay: Activity at LXRalpha assessed as coactivator peptide interaction with receptor ligand binding domain by FRET assay relative to standard control
T8 sequence (whole entry): T4 sequence (Q13133 whole entry)

[17] = molecular target: T9, Oxysterols receptor LXR-beta (Homo sapiens) (UniProt P55055); assay: Activity at LXRbeta assessed as coactivator peptide interaction with receptor ligand binding domain by scintillation proximity assay relative to standard control
T9 sequence (whole entry): T5 sequence (P55055 whole entry)

[18] = molecular target: T6, PXR (Nuclear receptor subfamily 1 group I member 2); assay: Activity at PXR assessed as coactivator peptide interaction with receptor ligand binding domain by scintillation proximity assay relative to standard control; settings: read-out: %max

T3 sequence (O00482 whole entry, the tested form may be a part): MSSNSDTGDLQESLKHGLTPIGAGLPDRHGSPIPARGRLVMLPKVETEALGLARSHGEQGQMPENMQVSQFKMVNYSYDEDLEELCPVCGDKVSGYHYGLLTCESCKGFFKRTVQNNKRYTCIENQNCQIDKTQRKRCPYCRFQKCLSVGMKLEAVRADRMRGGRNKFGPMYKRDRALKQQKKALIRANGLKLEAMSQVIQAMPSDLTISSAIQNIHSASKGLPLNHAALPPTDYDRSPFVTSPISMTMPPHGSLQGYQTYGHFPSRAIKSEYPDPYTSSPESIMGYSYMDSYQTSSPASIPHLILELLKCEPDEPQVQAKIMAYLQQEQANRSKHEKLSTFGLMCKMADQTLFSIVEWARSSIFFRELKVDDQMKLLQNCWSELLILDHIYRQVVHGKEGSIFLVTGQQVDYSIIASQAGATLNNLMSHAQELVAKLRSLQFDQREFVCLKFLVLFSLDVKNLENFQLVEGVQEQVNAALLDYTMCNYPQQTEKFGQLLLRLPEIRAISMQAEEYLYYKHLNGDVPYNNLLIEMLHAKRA

SMILES: CC(C)c1onc(C[S+]([O-])c2c(Cl)cccc2Cl)c1COc1ccc(/C=C/c2cccc(C(=O)O)c2)c(Cl)c1 (stereo not drawn)
- %max [1]: 110%
- EC50 (Bile acid receptor [2]): 72 nM
- Ratio [3]: 100
- EC50 (Bile acid receptor [4]): 28 nM
- %max [5]: 100%
- Ratio [6]: 100
- Ratio [7]: 100
- Ratio [8]: 100
- Ratio [9]: 100
- XC50 [10]: 4200 nM
- XC50 [11]: 1400 nM
- XC50 [12]: 2500 nM
- XC50 [13]: 960 nM
- XC50 [14]: > 10000 nM
- %max [15]: 46%
- %max [16]: 33%
- %max [17]: 101%
- Emax [18]: 100%
